{"source": "patent US11826399B2", "about": "“Chlorotoxin agents and uses thereof” (Eisai Inc., priority 2017, dated 2023)", "system": "PC-3 human prostate cancer cells", "test": "Co-administration of Cryptophycin Payload with CTX or iRGD in subcutaneous PC-3 xenograft model", "format": "in vivo, mouse", "conditions": "iRGD + Cryptophycin Payload 0.2 mg/kg (data not shown)"}
{"substance": "iRGD: tumor-penetrating peptide iRGD (CRGDK/RGPD/EC) (SEQ ID NO: 202)", "values": [{"measurement": "Effect of co-administration on tumor re-growth versus Cryptophycin Payload alone", "value": "re-growth of tumors was not shown to be significantly different"}]}
